In patent US20090018111A1, “Novel Antimicrobial Medicament” (priority 2004, published 2009):
Like-named read-outs stand apart in the source and are kept apart here.

How the values were obtained:
M. luteus ATCC9341 = test: Sensitivity test (agar dilution); format: cell-based, Micrococcus luteus; conditions: Micrococcus luteus, M. luteus ATCC9341
Summary of the method: (§1)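 Standard Japanese agar dilution method. Drugs alone or combined were serially halved in Mueller Hinton agar, inoculated with overnight (37° C) cultures at about 10^6 CFU/ml. Values are MICs.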

E. faecalis ATCC19433 = test: Sensitivity test (agar dilution); format: cell-based, Enterococcus faecalis; conditions: Enterococcus faecalis, E. faecalis ATCC19433
Summary of the method: as §1

B. subtilis ATCC6633 = test: Sensitivity test (agar dilution); format: cell-based, Bacillus subtilis; conditions: Bacillus subtilis, B. subtilis ATCC6633
Summary of the method: as §1

E. coli ML1410 = test: Sensitivity test (agar dilution); format: cell-based, Escherichia coli; conditions: Escherichia coli, E. coli ML1410
Summary of the method: as §1

E. coli NIHJ JC-2 = test: Sensitivity test (agar dilution); format: cell-based, Escherichia coli; conditions: Escherichia coli, E. coli NIHJ JC-2
Summary of the method: as §1

E. coli ML1410 RP4 = test: microbe, parasite or virus in culture; format: cell-based, Escherichia coli; conditions: Escherichia coli, E. coli ML1410 RP4
Summary of the method: as §1

K. pneumoniae ATCC10031 = test: Sensitivity test (agar dilution); format: cell-based, Klebsiella pneumoniae; conditions: Klebsiella pneumoniae, K. pneumoniae ATCC10031
Summary of the method: as §1

P. mirabiris GN2425 = test: Sensitivity test (agar dilution); format: cell-based, Proteus mirabilis; conditions: Proteus mirabilis, P. mirabiris GN2425
Summary of the method: as §1

S. marcescens GN6473 = test: Sensitivity test (agar dilution); format: cell-based, Serratia marcescens; conditions: Serratia marcescens, S. marcescens GN6473
Summary of the method: as §1

S. marcescens X 100 = test: Sensitivity test (agar dilution); format: cell-based, Serratia marcescens; conditions: Serratia marcescens, S. marcescens X 100
Summary of the method: as §1

E. aerogenes ATCC13048 = test: Sensitivity test (agar dilution); format: cell-based, Enterobacter aerogenes; conditions: Klebsiella aerogenes, E. aerogenes ATCC13048
Summary of the method: as §1

P. aeruginosa IFO3451 = test: Sensitivity test (agar dilution); format: cell-based, Pseudomonas aeruginosa; conditions: Pseudomonas aeruginosa, P. aeruginosa IFO3451
Summary of the method: as §1

P. aeruginosa TL-2667 = test: Sensitivity test (agar dilution); format: cell-based, Pseudomonas aeruginosa; conditions: Pseudomonas aeruginosa, P. aeruginosa TL-2667
Summary of the method: as §1

[1] = ATCC9341, drug alone, read-out: MIC alone
[2] = ATCC19433, drug alone, read-out: MIC alone
[3] = ATCC6633, drug alone, read-out: MIC alone
[4] = ML1410, drug alone, read-out: MIC alone
[5] = NIHJJC2, drug alone, read-out: MIC alone
[6] = ML1410RP4, read-out: MIC alone, drug alone
[7] = ATCC10031, drug alone, read-out: MIC alone
[8] = GN6473, drug alone, read-out: MIC alone
[9] = X100, drug alone, read-out: MIC alone
[10] = ATCC13048, drug alone, read-out: MIC alone
[11] = IFO3451, drug alone, read-out: MIC alone
[12] = TL2667, drug alone, read-out: MIC alone

CC(=N)N1CC[C@H](SC2=C(C(=O)O)N3C(=O)[C@H]([C@@H](C)O)[C@H]3C2)C1 [PAPM, panipenem] gave an MIC (M. luteus ATCC9341; ATCC9341, Concomitant (PAPM:SM = 1:1), read-out: MIC concomitant) of at most 0.002 µg/mL, an MIC (M. luteus ATCC9341; [1]) of 0.031 µg/mL and an MIC (E. faecalis ATCC19433; ATCC19433, Concomitant (PAPM:SM = 1:1), read-out: MIC concomitant) of 1 µg/mL. The MIC (E. faecalis ATCC19433; [2]) was 2 µg/mL, the MIC (B. subtilis ATCC6633; ATCC6633, Concomitant (PAPM:SM = 1:1), read-out: MIC concomitant) was at most 0.002 µg/mL and the MIC (B. subtilis ATCC6633; [3]) was 0.016 µg/mL. For the same molecule, the MIC (E. coli ML1410; ML1410, Concomitant (PAPM:SM = 1:1), read-out: MIC concomitant) was 0.125 µg/mL, the MIC (E. coli ML1410; [4]) was 0.5 µg/mL and the MIC (E. coli NIHJ JC-2; NIHJJC2, Concomitant (PAPM:SM = 1:1), read-out: MIC concomitant) was 0.063 µg/mL. For the same molecule, the MIC (E. coli NIHJ JC-2; [5]) was 0.25 µg/mL, the MIC (E. coli ML1410 RP4; [6]) was 0.5 µg/mL and the MIC (E. coli ML1410 RP4; ML1410RP4, read-out: MIC concomitant, Concomitant (PAPM:SM = 1:1)) was 0.125 µg/mL. The MIC (K. pneumoniae ATCC10031; ATCC10031, Concomitant (PAPM:SM = 1:1), read-out: MIC concomitant) was 0.016 µg/mL, the MIC (K. pneumoniae ATCC10031; [7]) was 0.125 µg/mL and the MIC (P. mirabiris GN2425; GN2425, Concomitant (PAPM:SM = 1:1), read-out: MIC concomitant) was 0.125 µg/mL. The MIC (P. mirabiris GN2425; GN2425, drug alone, read-out: MIC alone) was 1 µg/mL, the MIC (S. marcescens GN6473; GN6473, Concomitant (PAPM:SM = 1:1), read-out: MIC concomitant) was 0.25 µg/mL and the MIC (S. marcescens GN6473; [8]) was 0.5 µg/mL. For the same molecule, the MIC (S. marcescens X 100; X100, Concomitant (PAPM:SM = 1:1), read-out: MIC concomitant) was 0.125 µg/mL, the MIC (S. marcescens X 100; [9]) was 0.25 µg/mL and the MIC (E. aerogenes ATCC13048; ATCC13048, Concomitant (PAPM:SM = 1:1), read-out: MIC concomitant) was 0.25 µg/mL. It also gave an MIC (E. aerogenes ATCC13048; [10]) of 0.5 µg/mL, an MIC (P. aeruginosa IFO3451; IFO3451, Concomitant (PAPM:SM = 1:1), read-out: MIC concomitant) of 2 µg/mL and an MIC (P. aeruginosa IFO3451; [11]) of 4 µg/mL. The MIC (P. aeruginosa TL-2667; TL2667, Concomitant (PAPM:SM = 1:1), read-out: MIC concomitant) was 16 µg/mL and the MIC (P. aeruginosa TL-2667; [12]) was 16 µg/mL.
CCN1CCN(C(=O)N[C@@H](C(=O)N[C@@H]2C(=O)N3[C@@H]2SC(C)(C)[C@@H]3C(=O)O)c2ccccc2)C(=O)C1=O [PIPC, piperacillin] was tested, and the MIC (M. luteus ATCC9341; ATCC9341, Concomitant (PIPC:SM = 1:1), read-out: MIC concomitant) was at most 0.002 µg/mL, the MIC (M. luteus ATCC9341; [1]) was 0.031 µg/mL and the MIC (E. faecalis ATCC19433; ATCC19433, Concomitant (PIPC:SM = 1:1), read-out: MIC concomitant) was 0.5 µg/mL. For the same molecule, the MIC (E. faecalis ATCC19433; [2]) was 2 µg/mL, the MIC (B. subtilis ATCC6633; ATCC6633, Concomitant (PIPC:SM = 1:1), read-out: MIC concomitant) was at most 0.002 µg/mL and the MIC (B. subtilis ATCC6633; [3]) was 0.125 µg/mL. For the same molecule, the MIC (E. coli ML1410; ML1410, Concomitant (PIPC:SM = 1:1), read-out: MIC concomitant) was 0.125 µg/mL, the MIC (E. coli ML1410; [4]) was 2 µg/mL and the MIC (E. coli NIHJ JC-2; NIHJJC2, Concomitant (PIPC:SM = 1:1), read-out: MIC concomitant) was 0.063 µg/mL. The MIC (E. coli NIHJ JC-2; [5]) was 0.25 µg/mL, the MIC (E. coli ML1410 RP4; [6]) was over 32 µg/mL and the MIC (E. coli ML1410 RP4; ML1410RP4, read-out: MIC concomitant, Concomitant (PIPC:SM = 1:1)) was 0.5 µg/mL. It also gave an MIC (K. pneumoniae ATCC10031; ATCC10031, Concomitant (PIPC:SM = 1:1), read-out: MIC concomitant) of 0.016 µg/mL, an MIC (K. pneumoniae ATCC10031; [7]) of 0.25 µg/mL and an MIC (P. mirabiris GN2425; GN2425, read-out: MIC alone, drug alone) of 0.25 µg/mL. For the same molecule, the MIC (P. mirabiris GN2425; GN2425, read-out: MIC concomitant, Concomitant (PIPC:SM = 1:1)) was 0.063 µg/mL, the MIC (S. marcescens GN6473; GN6473, Concomitant (PIPC:SM = 1:1), read-out: MIC concomitant) was 4 µg/mL and the MIC (S. marcescens GN6473; [8]) was over 32 µg/mL. It also gave an MIC (S. marcescens X 100; X100, Concomitant (PIPC:SM = 1:1), read-out: MIC concomitant) of 0.25 µg/mL, an MIC (S. marcescens X 100; [9]) of 0.5 µg/mL and an MIC (E. aerogenes ATCC13048; ATCC13048, Concomitant (PIPC:SM = 1:1), read-out: MIC concomitant) of 8 µg/mL. The MIC (E. aerogenes ATCC13048; [10]) was 4 µg/mL, the MIC (P. aeruginosa IFO3451; IFO3451, Concomitant (PIPC:SM = 1:1), read-out: MIC concomitant) was 8 µg/mL and the MIC (P. aeruginosa IFO3451; [11]) was 4 µg/mL. It also gave an MIC (P. aeruginosa TL-2667; TL2667, Concomitant (PIPC:SM = 1:1), read-out: MIC concomitant) of 16 µg/mL and an MIC (P. aeruginosa TL-2667; [12]) of 2 µg/mL.
